Reference: ChEMBL document CHEMBL5696442, “Discovery of type II inhibitors of TGFβ-activated kinase 1 (TAK1) and mitogen-activated protein kinase kinase kinase kinase 2 (MAP4K2)” (J Med Chem, 2015)
Activity calls are given as the source filed them. The rule behind the calls is not given here.

What was measured:
[1] = target: T1, Dual specificity mitogen-activated protein kinase kinase 6 (Homo sapiens) (UniProt P52564); test: Inhibition of MAP2K6 Lys1 labeling site in human Huh-7 cell lysate at 1 uM by KiNativ Profiling analysis relative to control; type: subcellular
T1 sequence (whole entry): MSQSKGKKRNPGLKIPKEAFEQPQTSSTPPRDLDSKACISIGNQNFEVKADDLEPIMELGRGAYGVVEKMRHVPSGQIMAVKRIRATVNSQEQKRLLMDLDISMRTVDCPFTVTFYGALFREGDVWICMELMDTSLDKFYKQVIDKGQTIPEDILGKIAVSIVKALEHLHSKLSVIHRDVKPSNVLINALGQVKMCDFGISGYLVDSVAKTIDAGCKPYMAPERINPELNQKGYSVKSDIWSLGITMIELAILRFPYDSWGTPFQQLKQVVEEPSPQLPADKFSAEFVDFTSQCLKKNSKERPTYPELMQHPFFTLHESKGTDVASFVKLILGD

[2] = target: Phosphatidylinositol 4-kinase beta (Homo sapiens) (UniProt Q9UBF8); test: Inhibition of PI4KB ATP labeling site harbouring VPHTQAVVLNSKDKAPYLIYVEVLECENFDTTSVPAR in human Huh-7 cell lysate at 1 uM by KiNativ Profiling analysis relative to control; type: subcellular
[3] = target: STE20-like serine/threonine-protein kinase (Homo sapiens) (UniProt Q9H2G2); test: Inhibition of SLK Lys1 labeling site in human A-375 cells at 0.5 uM by KiNativ Profiling analysis relative to control; type: cell-based
[4] = target: Cyclin-dependent kinase 16 (Homo sapiens) (UniProt Q00536); test: Inhibition of PCTK1 (unknown origin) at 1 uM by Ambit Kinomescan binding assay relative to control
[5] = target: T2, Aurora kinase C (Homo sapiens) (UniProt Q9UQB9); test: Inhibition of AURKC (unknown origin) at 1 uM by Ambit Kinomescan binding assay relative to control; values are per cent of control
T2 sequence (whole entry): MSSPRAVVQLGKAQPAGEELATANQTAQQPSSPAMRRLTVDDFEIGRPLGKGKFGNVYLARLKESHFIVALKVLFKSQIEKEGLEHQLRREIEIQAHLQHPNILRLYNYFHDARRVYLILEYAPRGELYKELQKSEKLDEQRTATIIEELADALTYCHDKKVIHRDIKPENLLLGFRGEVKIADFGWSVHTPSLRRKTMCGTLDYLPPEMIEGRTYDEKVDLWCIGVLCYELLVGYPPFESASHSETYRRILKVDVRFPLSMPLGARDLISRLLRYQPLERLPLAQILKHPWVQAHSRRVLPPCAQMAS

[6] = target: ALK tyrosine kinase receptor (Homo sapiens) (UniProt Q9UM73); test: Inhibition of ALK (unknown origin) at 1 uM by Ambit Kinomescan binding assay relative to control
[7] = target: DNA-PK/Ku70/Ku85 (Homo sapiens) (UniProt P78527+P12956+P13010); test: Inhibition of DNAPK ATP labeling site harbouring GHDEREHPFLVKGGEDLRQDQR in human A-375 cells at 0.05 uM by KiNativ Profiling analysis relative to control; type: cell-based
[8] = target: Tyrosine-protein kinase receptor UFO (Homo sapiens) (UniProt P30530); test: Inhibition of AXL ACT labeling site in human A-375 cells at 5 uM by KiNativ Profiling analysis relative to control; type: cell-based
[9] = target: ALK tyrosine kinase receptor (Homo sapiens) (UniProt Q9UM73); test: Inhibition of ALK (unknown origin) at 10 uM by Ambit Kinomescan binding assay relative to control; values are per cent of control
[10] = target: Macrophage colony-stimulating factor 1 receptor (Homo sapiens) (UniProt P07333); test: Inhibition of CSF1R (unknown origin) at 10 uM by Ambit Kinomescan binding assay relative to control
[11] = target: Mitogen-activated protein kinase 6 (Homo sapiens) (UniProt Q16659); test: Inhibition of ERK3 (unknown origin) at 10 uM by Ambit Kinomescan binding assay
[12] = target: T3, Serine/threonine-protein kinase ULK1 (Homo sapiens) (UniProt O75385); test: Inhibition of ULK1 (unknown origin) at 10 uM by Ambit Kinomescan binding assay
T3 sequence (whole entry): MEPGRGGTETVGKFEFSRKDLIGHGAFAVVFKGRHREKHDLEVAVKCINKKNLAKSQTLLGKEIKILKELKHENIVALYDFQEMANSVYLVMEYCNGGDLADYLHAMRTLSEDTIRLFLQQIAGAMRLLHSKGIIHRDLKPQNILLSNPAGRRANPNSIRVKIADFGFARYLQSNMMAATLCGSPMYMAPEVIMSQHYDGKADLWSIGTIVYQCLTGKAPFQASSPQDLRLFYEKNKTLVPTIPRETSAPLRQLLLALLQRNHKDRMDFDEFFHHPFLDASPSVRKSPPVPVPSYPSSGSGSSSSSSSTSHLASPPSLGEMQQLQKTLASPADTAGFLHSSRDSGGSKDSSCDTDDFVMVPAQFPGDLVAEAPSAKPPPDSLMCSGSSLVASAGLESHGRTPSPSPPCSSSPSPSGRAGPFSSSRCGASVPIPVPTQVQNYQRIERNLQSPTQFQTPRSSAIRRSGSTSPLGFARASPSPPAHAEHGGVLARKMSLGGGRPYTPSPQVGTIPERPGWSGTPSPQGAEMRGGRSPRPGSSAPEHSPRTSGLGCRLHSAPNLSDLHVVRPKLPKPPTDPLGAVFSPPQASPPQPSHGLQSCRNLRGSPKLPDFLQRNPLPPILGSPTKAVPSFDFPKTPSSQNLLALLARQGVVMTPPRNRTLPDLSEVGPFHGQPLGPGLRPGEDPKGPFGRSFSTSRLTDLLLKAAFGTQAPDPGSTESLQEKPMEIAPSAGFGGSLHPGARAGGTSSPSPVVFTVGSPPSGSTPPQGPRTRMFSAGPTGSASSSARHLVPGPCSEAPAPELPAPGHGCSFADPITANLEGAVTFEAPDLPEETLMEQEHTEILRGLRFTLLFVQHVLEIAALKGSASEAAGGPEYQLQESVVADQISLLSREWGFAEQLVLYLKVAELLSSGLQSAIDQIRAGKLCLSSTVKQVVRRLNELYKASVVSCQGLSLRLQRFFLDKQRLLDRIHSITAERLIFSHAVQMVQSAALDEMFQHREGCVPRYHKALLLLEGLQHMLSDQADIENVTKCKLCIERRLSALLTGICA

Sequence of ALK tyrosine kinase receptor (Homo sapiens) (Q9UM73 19-1620 limits assumed): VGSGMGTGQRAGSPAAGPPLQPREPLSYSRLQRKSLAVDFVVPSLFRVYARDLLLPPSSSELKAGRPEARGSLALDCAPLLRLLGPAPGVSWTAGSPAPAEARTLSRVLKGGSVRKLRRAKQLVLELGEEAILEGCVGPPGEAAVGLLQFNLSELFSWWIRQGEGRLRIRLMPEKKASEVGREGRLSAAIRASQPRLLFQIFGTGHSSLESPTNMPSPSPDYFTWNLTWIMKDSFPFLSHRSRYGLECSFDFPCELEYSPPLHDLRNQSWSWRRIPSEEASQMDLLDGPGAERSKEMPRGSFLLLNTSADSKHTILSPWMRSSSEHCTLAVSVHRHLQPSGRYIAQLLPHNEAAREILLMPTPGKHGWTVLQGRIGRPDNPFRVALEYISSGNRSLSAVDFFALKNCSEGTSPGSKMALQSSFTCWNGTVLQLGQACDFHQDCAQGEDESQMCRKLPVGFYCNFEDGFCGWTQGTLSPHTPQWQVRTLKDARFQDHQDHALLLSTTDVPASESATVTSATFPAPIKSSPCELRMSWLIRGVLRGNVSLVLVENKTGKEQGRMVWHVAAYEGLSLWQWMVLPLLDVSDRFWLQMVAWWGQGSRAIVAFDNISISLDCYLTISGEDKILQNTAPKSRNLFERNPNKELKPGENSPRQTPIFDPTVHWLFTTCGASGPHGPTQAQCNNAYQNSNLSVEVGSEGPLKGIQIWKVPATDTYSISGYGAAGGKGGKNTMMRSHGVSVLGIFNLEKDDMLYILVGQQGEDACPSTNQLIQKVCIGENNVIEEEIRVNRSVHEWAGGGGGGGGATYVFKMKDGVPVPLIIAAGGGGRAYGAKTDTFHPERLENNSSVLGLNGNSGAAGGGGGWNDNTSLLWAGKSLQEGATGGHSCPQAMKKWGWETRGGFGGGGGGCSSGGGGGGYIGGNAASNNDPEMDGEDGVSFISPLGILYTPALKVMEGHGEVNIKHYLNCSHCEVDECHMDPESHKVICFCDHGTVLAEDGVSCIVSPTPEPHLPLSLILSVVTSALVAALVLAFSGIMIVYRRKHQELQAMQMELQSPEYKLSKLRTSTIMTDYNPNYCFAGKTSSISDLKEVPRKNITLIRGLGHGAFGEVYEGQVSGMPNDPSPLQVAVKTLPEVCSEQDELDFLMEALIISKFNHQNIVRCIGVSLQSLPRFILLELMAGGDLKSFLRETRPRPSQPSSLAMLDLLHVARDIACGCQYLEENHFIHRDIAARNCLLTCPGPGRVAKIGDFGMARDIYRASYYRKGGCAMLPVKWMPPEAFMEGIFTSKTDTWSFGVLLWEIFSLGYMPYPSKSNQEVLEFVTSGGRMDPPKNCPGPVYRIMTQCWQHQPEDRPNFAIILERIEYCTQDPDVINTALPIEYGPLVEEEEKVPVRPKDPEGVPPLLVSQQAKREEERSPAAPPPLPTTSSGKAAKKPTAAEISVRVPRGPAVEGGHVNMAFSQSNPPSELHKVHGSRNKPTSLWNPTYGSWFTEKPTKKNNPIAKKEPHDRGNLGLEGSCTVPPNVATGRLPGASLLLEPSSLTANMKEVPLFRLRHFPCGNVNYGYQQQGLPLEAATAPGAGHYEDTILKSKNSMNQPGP
Sequence of STE20-like serine/threonine-protein kinase (Homo sapiens) (Q9H2G2 whole entry, looked up): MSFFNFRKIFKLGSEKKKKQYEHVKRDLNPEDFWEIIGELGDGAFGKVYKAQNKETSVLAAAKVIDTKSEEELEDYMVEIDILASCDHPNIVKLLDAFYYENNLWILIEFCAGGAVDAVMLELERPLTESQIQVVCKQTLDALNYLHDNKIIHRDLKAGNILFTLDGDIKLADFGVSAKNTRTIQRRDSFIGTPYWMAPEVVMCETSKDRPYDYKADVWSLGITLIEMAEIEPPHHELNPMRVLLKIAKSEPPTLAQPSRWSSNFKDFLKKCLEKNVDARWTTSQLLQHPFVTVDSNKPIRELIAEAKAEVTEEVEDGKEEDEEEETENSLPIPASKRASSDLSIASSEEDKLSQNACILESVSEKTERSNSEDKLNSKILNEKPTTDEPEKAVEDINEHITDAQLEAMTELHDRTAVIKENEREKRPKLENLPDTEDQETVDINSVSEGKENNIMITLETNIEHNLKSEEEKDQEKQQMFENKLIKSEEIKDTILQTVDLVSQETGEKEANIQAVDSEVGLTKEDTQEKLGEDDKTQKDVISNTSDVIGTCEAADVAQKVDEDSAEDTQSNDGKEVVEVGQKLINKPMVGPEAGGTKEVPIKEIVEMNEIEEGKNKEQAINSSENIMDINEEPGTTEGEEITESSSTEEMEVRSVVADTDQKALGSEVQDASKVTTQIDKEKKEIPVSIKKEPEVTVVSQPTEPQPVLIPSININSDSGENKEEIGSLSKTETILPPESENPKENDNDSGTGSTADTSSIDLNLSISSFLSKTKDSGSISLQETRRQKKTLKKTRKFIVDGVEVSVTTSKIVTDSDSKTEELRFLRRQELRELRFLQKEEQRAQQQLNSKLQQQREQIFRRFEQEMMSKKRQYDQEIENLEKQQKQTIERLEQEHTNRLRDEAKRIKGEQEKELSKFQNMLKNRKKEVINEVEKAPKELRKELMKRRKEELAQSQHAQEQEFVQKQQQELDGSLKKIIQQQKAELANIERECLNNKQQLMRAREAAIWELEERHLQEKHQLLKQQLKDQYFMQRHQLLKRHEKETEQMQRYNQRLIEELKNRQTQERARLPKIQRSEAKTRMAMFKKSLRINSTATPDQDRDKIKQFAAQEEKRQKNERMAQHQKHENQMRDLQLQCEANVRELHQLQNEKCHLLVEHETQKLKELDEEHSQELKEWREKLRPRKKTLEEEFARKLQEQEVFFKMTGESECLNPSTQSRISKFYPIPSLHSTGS
Sequence of Macrophage colony-stimulating factor 1 receptor (Homo sapiens) (P07333 whole entry): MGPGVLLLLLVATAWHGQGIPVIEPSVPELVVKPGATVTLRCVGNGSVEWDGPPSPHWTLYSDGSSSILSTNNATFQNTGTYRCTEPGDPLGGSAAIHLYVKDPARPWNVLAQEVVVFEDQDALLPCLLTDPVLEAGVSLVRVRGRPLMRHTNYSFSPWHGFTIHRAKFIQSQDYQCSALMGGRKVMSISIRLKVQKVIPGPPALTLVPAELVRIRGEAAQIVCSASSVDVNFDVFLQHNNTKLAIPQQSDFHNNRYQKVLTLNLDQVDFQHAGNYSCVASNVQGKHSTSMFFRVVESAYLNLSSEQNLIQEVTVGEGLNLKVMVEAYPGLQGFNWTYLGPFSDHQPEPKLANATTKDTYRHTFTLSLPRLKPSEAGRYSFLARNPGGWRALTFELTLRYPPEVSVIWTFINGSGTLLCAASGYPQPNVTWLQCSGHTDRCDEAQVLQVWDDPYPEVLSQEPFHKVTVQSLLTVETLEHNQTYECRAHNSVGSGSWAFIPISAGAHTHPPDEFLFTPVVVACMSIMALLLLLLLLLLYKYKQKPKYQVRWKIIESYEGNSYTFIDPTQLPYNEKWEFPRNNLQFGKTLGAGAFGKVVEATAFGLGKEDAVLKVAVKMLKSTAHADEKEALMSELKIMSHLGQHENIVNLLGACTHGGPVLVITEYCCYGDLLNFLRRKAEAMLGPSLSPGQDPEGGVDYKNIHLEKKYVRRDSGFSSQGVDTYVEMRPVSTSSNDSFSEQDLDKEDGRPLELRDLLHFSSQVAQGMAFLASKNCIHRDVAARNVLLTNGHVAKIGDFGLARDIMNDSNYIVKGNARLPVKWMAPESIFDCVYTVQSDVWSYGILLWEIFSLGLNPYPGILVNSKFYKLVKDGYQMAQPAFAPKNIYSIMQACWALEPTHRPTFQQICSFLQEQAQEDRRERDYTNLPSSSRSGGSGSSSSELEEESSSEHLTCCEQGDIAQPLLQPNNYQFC
Sequence of Mitogen-activated protein kinase 6 (Homo sapiens) (Q16659 whole entry): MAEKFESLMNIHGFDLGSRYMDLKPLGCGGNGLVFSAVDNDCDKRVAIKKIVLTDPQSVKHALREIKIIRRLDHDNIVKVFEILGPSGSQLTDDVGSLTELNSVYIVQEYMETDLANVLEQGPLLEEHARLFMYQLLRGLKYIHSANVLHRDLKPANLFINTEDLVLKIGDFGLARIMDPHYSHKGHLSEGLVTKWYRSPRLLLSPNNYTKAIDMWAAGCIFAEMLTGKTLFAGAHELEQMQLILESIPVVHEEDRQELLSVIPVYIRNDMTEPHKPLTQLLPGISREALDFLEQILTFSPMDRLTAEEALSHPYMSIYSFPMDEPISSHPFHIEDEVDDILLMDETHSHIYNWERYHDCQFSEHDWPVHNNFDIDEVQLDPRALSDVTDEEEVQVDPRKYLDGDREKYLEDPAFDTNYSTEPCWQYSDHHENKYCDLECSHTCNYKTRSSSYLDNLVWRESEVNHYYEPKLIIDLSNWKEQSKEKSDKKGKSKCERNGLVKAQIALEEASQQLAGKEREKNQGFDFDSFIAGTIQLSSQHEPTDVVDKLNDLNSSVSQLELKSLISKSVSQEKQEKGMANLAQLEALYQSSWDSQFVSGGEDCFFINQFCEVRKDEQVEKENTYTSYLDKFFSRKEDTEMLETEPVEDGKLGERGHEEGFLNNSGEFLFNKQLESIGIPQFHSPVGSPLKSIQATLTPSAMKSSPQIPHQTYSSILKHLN
Sequence of Cyclin-dependent kinase 16 (Homo sapiens) (Q00536 whole entry): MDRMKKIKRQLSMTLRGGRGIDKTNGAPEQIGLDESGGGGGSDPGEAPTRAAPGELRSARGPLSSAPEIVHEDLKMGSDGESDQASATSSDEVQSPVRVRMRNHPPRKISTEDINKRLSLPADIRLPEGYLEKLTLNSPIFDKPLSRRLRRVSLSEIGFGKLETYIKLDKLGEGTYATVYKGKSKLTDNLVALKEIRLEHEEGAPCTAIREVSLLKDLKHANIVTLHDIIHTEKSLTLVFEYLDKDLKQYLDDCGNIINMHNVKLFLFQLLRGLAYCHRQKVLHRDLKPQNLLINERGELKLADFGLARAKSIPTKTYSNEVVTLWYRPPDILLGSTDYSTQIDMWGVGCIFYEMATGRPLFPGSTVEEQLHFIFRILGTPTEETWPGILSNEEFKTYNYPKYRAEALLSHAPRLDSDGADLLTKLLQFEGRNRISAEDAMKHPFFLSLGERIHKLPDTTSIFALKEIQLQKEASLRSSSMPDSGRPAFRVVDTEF

CNc1cc(Oc2cc(C(=O)Nc3cc(N4CCN(C)CC4)cc(C(F)(F)F)c3)ccc2C)ncn1 showed an inhibition [1] of 5.3% and an inhibition [2] of -1%.
In the case of CCN1CCN(Cc2ccc(NC(=O)c3ccc(C)c(/C=C/c4cnc5[nH]ccc5c4OC)c3)cc2C(F)(F)F)CC1, the inhibition [3] was 6.8%, the inhibition [4] was 100% and the residual activity [5] was 34%. The inhibition [6] was 80%, the inhibition [7] was -9.6% and the inhibition [8] was -6.1%.
For CCN1CCN(Cc2ccc(NC(=O)c3ccc(C)c(Oc4ccnc5[nH]ccc45)c3)cc2C(F)(F)F)CC1, the percent of control [9] was 0.55%, the inhibition [10] was 0% and the inhibition [11] was “inactive”. The inhibition [12] was “inactive”.
